In ChEMBL document CHEMBL5537119 (Eur J Med Chem, 2024):

Experiments:
Histone deacetylase 4 = Histone deacetylase 4 (Homo sapiens, UniProt P56524); assay: Inhibition of human recombinant TEV-8His-tagged HDAC4 (648 to 1057 residues) expressed in Escherichia coli (DE3) Rosetta cells using Boc-Lys-(Tfa)-AMC as substrate preincubated for 5 mins followed by substrate addition and measured after 90 mins by fluorescence based microplate reader analysis
Histone deacetylase 1 = Histone deacetylase 1 (Homo sapiens, UniProt Q13547); assay: Inhibition of HDAC1 (unknown origin)
THP-1 = assay: Inhibition of Class IIa/8 HDAC in human THP-1 cells at 100 uM preincubated for 18 hrs followed by substrate addition and measured after 3 hrs by fluorescence based microplate reader assay relative to control; assay type: cell-based; conditions: time 21.0 hrs, values are per cent of control
[1] = biological target: T1, Protein deacetylase HDAC6 (Homo sapiens, UniProt Q9UBN7); assay: Inhibition of human recombinant HDAC6 using Boc-Lys(Ac)-AMC as substrate preincubated for 5 mins followed by substrate addition and measured after 90 mins by fluorescence based microplate reader analysis
T1 sequence (Q9UBN7 whole entry): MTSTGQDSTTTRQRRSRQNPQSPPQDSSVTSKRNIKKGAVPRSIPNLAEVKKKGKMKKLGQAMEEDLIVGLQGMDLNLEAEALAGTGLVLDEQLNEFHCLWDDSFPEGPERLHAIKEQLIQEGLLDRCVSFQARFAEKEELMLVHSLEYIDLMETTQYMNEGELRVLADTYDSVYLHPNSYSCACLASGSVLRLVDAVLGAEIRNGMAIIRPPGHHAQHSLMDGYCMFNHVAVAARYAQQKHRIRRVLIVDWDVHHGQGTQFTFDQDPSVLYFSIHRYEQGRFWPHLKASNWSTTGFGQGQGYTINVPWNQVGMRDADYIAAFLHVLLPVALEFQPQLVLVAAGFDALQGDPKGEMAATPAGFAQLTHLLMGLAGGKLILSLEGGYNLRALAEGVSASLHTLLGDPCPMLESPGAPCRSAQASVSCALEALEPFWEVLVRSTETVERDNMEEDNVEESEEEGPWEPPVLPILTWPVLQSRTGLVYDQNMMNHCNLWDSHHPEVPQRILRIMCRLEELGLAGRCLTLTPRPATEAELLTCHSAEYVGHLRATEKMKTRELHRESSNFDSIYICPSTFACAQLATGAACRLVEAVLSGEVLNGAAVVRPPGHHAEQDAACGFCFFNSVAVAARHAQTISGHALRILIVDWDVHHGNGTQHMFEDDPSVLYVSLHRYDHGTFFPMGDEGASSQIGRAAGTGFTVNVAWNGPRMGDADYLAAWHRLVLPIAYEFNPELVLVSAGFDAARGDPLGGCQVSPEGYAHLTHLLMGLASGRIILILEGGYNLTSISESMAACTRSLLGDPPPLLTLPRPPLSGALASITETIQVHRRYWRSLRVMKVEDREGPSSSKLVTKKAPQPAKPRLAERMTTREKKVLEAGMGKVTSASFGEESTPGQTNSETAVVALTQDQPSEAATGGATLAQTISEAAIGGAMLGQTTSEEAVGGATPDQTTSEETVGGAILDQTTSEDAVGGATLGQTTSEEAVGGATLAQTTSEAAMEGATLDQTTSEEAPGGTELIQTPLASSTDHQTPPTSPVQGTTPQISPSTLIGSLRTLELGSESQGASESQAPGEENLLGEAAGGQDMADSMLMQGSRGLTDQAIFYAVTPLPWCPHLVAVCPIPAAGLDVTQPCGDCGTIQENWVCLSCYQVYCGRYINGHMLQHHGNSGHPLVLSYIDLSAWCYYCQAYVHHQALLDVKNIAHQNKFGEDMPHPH

Chain of Histone deacetylase 4 (P56524 whole entry, the tested form may be a part): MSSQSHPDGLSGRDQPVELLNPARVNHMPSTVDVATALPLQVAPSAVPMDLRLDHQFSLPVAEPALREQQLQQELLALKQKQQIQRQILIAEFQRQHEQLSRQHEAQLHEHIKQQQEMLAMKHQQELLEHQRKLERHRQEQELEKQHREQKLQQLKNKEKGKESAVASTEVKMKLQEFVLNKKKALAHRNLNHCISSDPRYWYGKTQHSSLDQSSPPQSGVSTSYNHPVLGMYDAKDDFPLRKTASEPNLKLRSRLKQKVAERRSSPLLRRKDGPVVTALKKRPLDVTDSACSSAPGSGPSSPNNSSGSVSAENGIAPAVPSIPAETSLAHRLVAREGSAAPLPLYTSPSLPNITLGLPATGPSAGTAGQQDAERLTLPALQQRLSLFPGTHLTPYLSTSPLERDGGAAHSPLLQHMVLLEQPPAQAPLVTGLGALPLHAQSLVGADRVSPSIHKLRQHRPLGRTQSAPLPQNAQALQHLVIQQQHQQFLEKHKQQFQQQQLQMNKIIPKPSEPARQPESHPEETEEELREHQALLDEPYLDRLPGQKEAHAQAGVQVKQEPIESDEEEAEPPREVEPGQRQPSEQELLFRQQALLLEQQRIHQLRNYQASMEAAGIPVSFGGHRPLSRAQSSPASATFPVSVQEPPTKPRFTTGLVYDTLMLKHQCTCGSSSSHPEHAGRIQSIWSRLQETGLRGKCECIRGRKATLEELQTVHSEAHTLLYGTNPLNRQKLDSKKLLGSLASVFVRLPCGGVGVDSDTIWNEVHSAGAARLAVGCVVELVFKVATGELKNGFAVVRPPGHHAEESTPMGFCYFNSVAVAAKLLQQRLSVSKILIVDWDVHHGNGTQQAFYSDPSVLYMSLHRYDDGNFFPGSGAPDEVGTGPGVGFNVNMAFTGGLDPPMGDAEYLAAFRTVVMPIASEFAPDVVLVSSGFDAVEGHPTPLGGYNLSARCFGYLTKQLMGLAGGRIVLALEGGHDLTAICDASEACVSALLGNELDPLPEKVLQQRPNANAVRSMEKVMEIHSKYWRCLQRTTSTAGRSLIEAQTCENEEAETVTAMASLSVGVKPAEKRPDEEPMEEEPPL
Chain of Histone deacetylase 1 (Q13547 whole entry): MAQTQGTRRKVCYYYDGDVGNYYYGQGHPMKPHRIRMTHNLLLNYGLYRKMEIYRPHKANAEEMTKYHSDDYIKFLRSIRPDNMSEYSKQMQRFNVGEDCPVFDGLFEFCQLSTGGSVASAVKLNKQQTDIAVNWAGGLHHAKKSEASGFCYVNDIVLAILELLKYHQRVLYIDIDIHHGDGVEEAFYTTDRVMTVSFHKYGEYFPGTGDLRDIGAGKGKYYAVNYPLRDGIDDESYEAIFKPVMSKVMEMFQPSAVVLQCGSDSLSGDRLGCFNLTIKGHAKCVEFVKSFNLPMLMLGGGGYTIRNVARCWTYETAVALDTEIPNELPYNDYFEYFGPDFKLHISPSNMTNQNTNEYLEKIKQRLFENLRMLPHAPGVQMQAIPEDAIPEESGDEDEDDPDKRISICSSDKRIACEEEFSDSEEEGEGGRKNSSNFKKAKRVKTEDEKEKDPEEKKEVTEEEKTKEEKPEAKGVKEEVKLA

IC50 (Histone deacetylase 4): 0.118 µM
IC50 (Histone deacetylase 1): > 100 µM
IC50 [1]: > 100 µM
SMILES: O=C(NOCc1coc(-c2ccccc2)n1)c1ccc(-c2noc(C(F)(F)F)n2)cc1
residual activity (THP-1): 76%
